Test results published in ChEMBL document CHEMBL5620430, “Design, synthesis and biological evaluation of indazole derivatives as selective covalent inhibitors of FGFR4 in wild-type and gatekeeper mutants” (Eur J Med Chem, 2023).
Activity calls are given as the source filed them. The calls are words filed in the database; no cut-off is given here.

Assays:
Huh-7 [1] = test: cells; conditions: Homo sapiens
Description: Antiproliferative activity against human Huh-7 cells measured after 24 to 48 hrs by MTT assay

[2] = molecular target: Fibroblast growth factor receptor 1 (Homo sapiens, UniProt P11362)
Description: Inhibition of FGFR1 (unknown origin)

[3] = molecular target: Fibroblast growth factor receptor 4 (Homo sapiens, UniProt P22455)
Description: Inhibition of FGFR4 (445 to 753 residues) (unknown origin) expressed in Escherichia coli

Hep 3B2 = test: Antiproliferative activity against human Hep3B cells measured after 24 to 48 hrs by MTT assay; format: functional, cell-based
HepG2 = test: Antiproliferative activity against human HepG2 cells measured after 24 to 48 hrs by MTT assay; format: functional, cell-based
BaF3 [4] = test: cells; conditions: Mus musculus
Description: Antiproliferative activity against mouse BaF3 cells harbouring ETV6-FGFR4-N535K mutant measured after 24 to 48 hrs by MTT assay

BaF3 [5] = test: cells; conditions: Mus musculus; remark: listed apart in the source
Description: Antiproliferative activity against mouse BaF3 cells harbouring ETV6-FGFR4-V550L mutant measured after 24 to 48 hrs by MTT assay

Huh-7 [6] = test: Inhibition of colony formation in human Huh-7 cells assessed as reduction in number of colonies at 270 nM measured for 12 days; format: functional, cell-based; conditions: time 12.0 day
[7] = Antiproliferative activity against human L02 cells measured after 24 to 48 hrs by MTT assay; format: toxicity, cell-based
[8] = Metabolic stability in liver microsomes (unknown origin) assessed as half life; format: ADME, Microsome

Fibroblast growth factor receptor 1, sequence (P11362 whole entry): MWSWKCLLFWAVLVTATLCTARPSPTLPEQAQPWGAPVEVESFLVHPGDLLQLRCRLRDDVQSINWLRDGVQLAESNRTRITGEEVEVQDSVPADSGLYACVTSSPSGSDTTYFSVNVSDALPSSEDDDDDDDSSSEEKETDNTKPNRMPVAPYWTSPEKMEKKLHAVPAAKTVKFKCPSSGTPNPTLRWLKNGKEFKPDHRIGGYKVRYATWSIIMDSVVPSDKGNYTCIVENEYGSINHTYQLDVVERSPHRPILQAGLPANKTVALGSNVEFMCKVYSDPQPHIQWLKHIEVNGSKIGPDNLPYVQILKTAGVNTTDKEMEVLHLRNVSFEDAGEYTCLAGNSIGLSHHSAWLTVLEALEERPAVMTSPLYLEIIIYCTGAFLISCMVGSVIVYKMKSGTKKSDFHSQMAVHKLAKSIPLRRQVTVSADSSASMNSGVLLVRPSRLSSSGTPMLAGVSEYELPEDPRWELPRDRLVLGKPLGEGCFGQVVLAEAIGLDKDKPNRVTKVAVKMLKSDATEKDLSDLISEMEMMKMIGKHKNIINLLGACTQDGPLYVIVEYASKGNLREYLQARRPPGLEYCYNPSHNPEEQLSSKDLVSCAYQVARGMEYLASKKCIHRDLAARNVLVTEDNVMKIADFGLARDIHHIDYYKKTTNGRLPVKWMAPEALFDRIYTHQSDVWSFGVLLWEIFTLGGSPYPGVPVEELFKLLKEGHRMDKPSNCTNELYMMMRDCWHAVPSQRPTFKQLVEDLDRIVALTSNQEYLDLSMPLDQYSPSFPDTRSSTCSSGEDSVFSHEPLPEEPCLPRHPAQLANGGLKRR
Fibroblast growth factor receptor 4, sequence (P22455 whole entry): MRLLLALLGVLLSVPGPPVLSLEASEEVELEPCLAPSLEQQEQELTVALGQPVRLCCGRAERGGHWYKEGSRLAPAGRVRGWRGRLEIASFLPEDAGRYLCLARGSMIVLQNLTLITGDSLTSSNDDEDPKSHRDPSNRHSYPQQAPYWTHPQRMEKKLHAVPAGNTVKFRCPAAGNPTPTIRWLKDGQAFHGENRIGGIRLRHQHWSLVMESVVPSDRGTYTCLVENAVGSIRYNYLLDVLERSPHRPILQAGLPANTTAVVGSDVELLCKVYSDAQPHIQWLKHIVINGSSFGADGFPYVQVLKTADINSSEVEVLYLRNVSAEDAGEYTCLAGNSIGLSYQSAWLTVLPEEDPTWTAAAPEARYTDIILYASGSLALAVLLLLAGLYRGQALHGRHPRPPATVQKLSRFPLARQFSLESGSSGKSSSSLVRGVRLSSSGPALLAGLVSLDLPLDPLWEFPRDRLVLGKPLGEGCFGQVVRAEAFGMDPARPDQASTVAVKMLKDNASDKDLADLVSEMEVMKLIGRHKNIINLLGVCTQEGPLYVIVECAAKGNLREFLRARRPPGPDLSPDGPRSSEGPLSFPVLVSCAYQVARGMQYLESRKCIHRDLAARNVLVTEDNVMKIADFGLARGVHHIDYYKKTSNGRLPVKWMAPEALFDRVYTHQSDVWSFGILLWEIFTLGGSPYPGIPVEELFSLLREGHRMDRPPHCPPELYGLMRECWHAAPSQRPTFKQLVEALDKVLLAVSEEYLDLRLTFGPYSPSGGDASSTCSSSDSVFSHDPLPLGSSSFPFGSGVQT

Compound | IC50 (Huh-7 [1]) [nM] | IC50 [2] [nM] | IC50 [3] [nM] | further results
C=CC(=O)Nc1ccc(F)cc1-c1n[nH]c2ccc(O[C@H](C)c3c(Cl)cncc3Cl)cc12 | 324 | > 3000 | 3.2 | –
C=CC(=O)N[C@H]1CCOC[C@H]1Nc1ncc2cc(-c3c(Cl)c(OC)cc(OC)c3Cl)ccc2n1 [FISOGATINIB] | – | 1030 | 3.9 | IC50 (Hep 3B2): 46 nM; IC50 (HepG2): 4430 nM; IC50 (BaF3 [4]): 528 nM; IC50 (BaF3 [5]): 396 nM; inhibition (Huh-7 [6]): Active; IC50 [7]: > 10000 nM
C=CC(=O)Nc1cc2c(cc1-c1n[nH]c3ccc(O[C@H](C)c4c(Cl)cncc4Cl)cc13)CN(S(C)(=O)=O)C2 | 48 | > 3000 | 3.5 | –
C=CC(=O)Nc1cccc(-c2n[nH]c3ccc(O[C@H](C)c4c(Cl)cncc4Cl)cc23)c1 | 2440 | > 3000 | 1200 | –
C=CC(=O)Nc1ccccc1-c1n[nH]c2ccc(O[C@H](C)c3c(Cl)cncc3Cl)cc12 | 80 | > 3000 | – | –
C=CC(=O)Nc1cc2c(cc1-c1n[nH]c3ccc(O[C@H](C)c4c(Cl)cncc4Cl)cc13)CN(C)CC2 | 132 | > 3000 | 3.1 | –
C=CC(=O)Nc1ccccc1-c1n[nH]c2ccc(OCc3ccncc3)cc12 | > 3000 | – | 243 | –
C=CC(=O)Nc1cc2c(cc1-c1n[nH]c3ccc(O[C@H](C)c4c(Cl)cncc4Cl)cc13)CCN(CCO)C2 | 30 | > 3000 | 2.6 | half-life [8]: 3.04 min; IC50 (BaF3 [5]): 1 nM; IC50 [7]: > 10000 nM
C=CC(=O)Nc1ccccc1-c1n[nH]c2ccc(OC(C)c3c(Cl)cccc3Cl)cc12 (stereo not drawn) | > 3000 | – | 252 | –
C=CC(=O)Nc1ccc(N2CCOCC2)cc1-c1n[nH]c2ccc(O[C@H](C)c3c(Cl)cncc3Cl)cc12 | 20 | > 3000 | 2.5 | half-life [8]: 2.73 min; IC50 (BaF3 [5]): 3 nM; IC50 [7]: > 10000 nM
C=CC(=O)Nc1cc2c(cc1-c1n[nH]c3ccc(O[C@H](C)c4c(Cl)cncc4Cl)cc13)CCN(CCOC)C2 | 54 | > 3000 | 2.5 | –
C=CC(=O)Nc1ccccc1-c1n[nH]c2ccc(OC(C)c3c(F)cncc3F)cc12 (stereo not drawn) | 1270 | > 3000 | 42 | –
C=CC(=O)Nc1ccccc1-c1n[nH]c2ccc(OCc3c(Cl)cccc3Cl)cc12 | > 3000 | – | 764 | –
C=CC(=O)Nc1ccccc1-c1n[nH]c2ccc(O[C@@H](C)c3c(Cl)cncc3Cl)cc12 | > 3000 | – | – | –
C=CC(=O)Nc1cc(F)ccc1-c1n[nH]c2ccc(O[C@H](C)c3c(Cl)cncc3Cl)cc12 | 190 | > 3000 | 3.5 | –
C=CC(=O)Nc1cc2c(cc1-c1n[nH]c3ccc(O[C@H](C)c4c(Cl)cncc4Cl)cc13)CN(CCO)CC2 | 275 | > 3000 | 6.2 | –
C=CC(=O)Nc1cc2c(cc1-c1n[nH]c3ccc(O[C@H](C)c4c(Cl)cncc4Cl)cc13)CN(CCOC)CC2 | 753 | > 3000 | 9.7 | –
C=CC(=O)Nc1cc(N2CCN(C)CC2)ccc1-c1n[nH]c2ccc(O[C@H](C)c3c(Cl)cncc3Cl)cc12 | 12 | > 3000 | 1.8 | half-life [8]: 3.8 min; IC50 (BaF3 [5]): 2 nM; IC50 [7]: 3940 nM
C=CC(=O)Nc1ccccc1-c1n[nH]c2ccc(OCc3ccccn3)cc12 | > 3000 | – | 481 | –
C=CC(=O)Nc1cc2c(cc1-c1n[nH]c3ccc(O[C@H](C)c4c(Cl)cncc4Cl)cc13)CN(C)C2 | 50 | > 3000 | 2.7 | –
C=CC(=O)Nc1ccccc1-c1n[nH]c2ccc(OC(C)c3ccncc3)cc12 (stereo not drawn) | > 3000 | > 3000 | 169 | –
C=CC(=O)Nc1ccccc1-c1n[nH]c2ccc(OCc3cccnc3)cc12 | > 3000 | > 3000 | 83 | –
C=CC(=O)Nc1cc2c(cc1-c1n[nH]c3ccc(O[C@H](C)c4c(Cl)cncc4Cl)cc13)CN(CCOC)C2 | 193 | > 3000 | 3.2 | –
C=CC(=O)Nc1ccc(N2CCN(C)CC2)cc1-c1n[nH]c2ccc(O[C@H](C)c3c(Cl)cncc3Cl)cc12 | 15 | > 3000 | 2.1 | half-life [8]: 2.41 min; IC50 (BaF3 [5]): 1 nM; IC50 [7]: 4280 nM
C=CC(=O)Nc1cc(N2CCOCC2)ccc1-c1n[nH]c2ccc(O[C@H](C)c3c(Cl)cncc3Cl)cc12 | 17 | > 3000 | 2.2 | half-life [8]: 1.37 min; IC50 (BaF3 [5]): 2 nM; IC50 [7]: > 10000 nM
C=CC(=O)Nc1cc2c(cc1-c1n[nH]c3ccc(O[C@H](C)c4c(Cl)cncc4Cl)cc13)CN(CCO)C2 | 67 | > 3000 | 1.9 | –
C=CC(=O)Nc1ccccc1-c1n[nH]c2ccc(OCc3c(Cl)cncc3Cl)cc12 | 754 | > 3000 | 27 | –
C=CC(=O)Nc1ccccc1-c1n[nH]c2ccc(OC(C)c3c(Cl)cncc3Cl)cc12 (racemic) | 221 | > 3000 | – | –
C=CC(=O)Nc1cc2c(cc1-c1n[nH]c3ccc(O[C@H](C)c4c(Cl)cncc4Cl)cc13)CN(C(=O)OC(C)(C)C)C2 | 859 | > 3000 | – | –
